Assay type in all cases: in vivo
For series [1], the system named is cat flea (Ctenocephalides felis). The series can be described thus: Ctenocephalides felis adulticide assay: dose response (LC50). The procedure, abridged: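 Groups of 15 adult cat fleas, 3–7 days post-emergence, were exposed for 24 h at 25° C and 75% humidity to glass flask bases coated with six serial doses in acetone and dried for 24 h. Mortality was scored at 8 and 24 h, and LC50 was the surface-treatment concentration killing 50%.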

Series [2] shares this test system. The series can be described thus: whole plant or invertebrate. As to conditions: Ctenocephalides felis, Laboratory 1 A data. The method, boiled down: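 Single-dose screen at 1.26 μg/cm^2: acetone solution dried for 24 h on a Coatasil-treated 159 mm^2 flask base, then 15 adult cat fleas aged 3-7 days per flask, four or more replicates, acetone control. Percent dead, meaning not moving or unable to right themselves, recorded after 8, 24 and/or 48 h at 25 °C and 75% RH.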

For a further series, the system named is Haemonchus contortus. The series is described as follows: Haemonchus contortus larvacidal (larval development) assay. As to conditions: 144 h, read-out: Haemonchus contortus LD99. The procedure, abridged:
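Nematode eggs placed on agar containing compound (12 two-fold dilutions, final 0.024–50 μg/ml) and left 6 days to develop to L3. LD99 is the lowest concentration inhibiting development of 99% of larvae, derived from well titre (2^n−1) and top concentration.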

[3] abbreviates: 8 h, read-out: C. felis Mortality (%) 8 h, 8 h.
Where [4] appears, read: 24 h, read-out: C. felis Mortality (%) 24 h, 24 h.

Like-named read-outs stand apart in the source and are kept apart here.

As usually defined, the mortality is the percentage killed. Turning to `CC/C(=N\OCc1ccc(C(F)(F)F)cc1)c1cc(Cl)ccc1NS(=O)(=O)C(F)(F)F` [Compound 9], the “C. felis LC50” value in series [1] (Laboratory 1 C data) stood at 0.1 μg/cm^2; in series [1] (Laboratory 2 D data), 0.01 μg/cm^2. Besides, the values for the mortality at 1.26 µg/cm2, 1.26 µg/cm2 in series [2] (setting [3]) and in series [2] (setting [4]) were 86% and 98%, respectively. Also, the IC99 in the series with Haemonchus contortus was determined as 0.6 µg/mL.
On the same counts, the results for `CC/C(=N\OCc1ccc(Cl)cc1)c1cc(Cl)ccc1NS(=O)(=O)C(F)(F)F` [Compound 11, N-{4-chloro-2-[1-(4-chlorobenzyloxyimino)propyl]phenyl}trifluoromethanesulfonamide] are 0.1 μg/cm^2, 0.01 μg/cm^2, 87%, 100% and 0.7 µg/mL.

The values above are taken from patent US7312248B2, “Control of parasites in animals by the use of novel trifluoromethanesulfonanilide oxime ether derivatives” (Schering-Plough Animal Health Corporation, priority 2004, dated 2007).
